Assay results from the supplement of paper PMC13207355.

Assays:
Conditions in all cases: exposure time: 72 h
[1] = tested on: E31 (patient-derived glioblastoma stem cells of proneural subtype); assay: phenotypic distance (Euclidean, principal components) from DMSO controls (arbitrary units); higher = stronger morphological change
[2] = tested on: E28 (patient-derived glioblastoma stem cells of classical subtype); assay: as above
[3] = tested on: E57 (patient-derived glioblastoma stem cells of mesenchymal subtype); assay: as above
[4] = tested on: E13 (patient-derived glioblastoma stem cells of classical subtype); assay: as above
[5] = tested on: E21 (patient-derived glioblastoma stem cells of mesenchymal subtype); assay: as above
[6] = tested on: E34 (patient-derived glioblastoma stem cells of proneural subtype); assay: as above
[7] = tested on: FT3469 (normal neural stem cell line); assay: as above
[8] = tested on: E31; assay: surviving fraction (nuclei count normalised to DMSO); higher = more cells surviving (less toxic)
[9] = tested on: E28; assay: as above
[10] = tested on: E57; assay: as above
[11] = tested on: E13; assay: as above
[12] = tested on: E21; assay: as above
[13] = tested on: E34; assay: as above
[14] = tested on: FT3469; assay: as above
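Wherever phenotypic distance (Euclidean, principal components) from DMSO controls is given: cell Painting imaging in 384-well plates, CellProfiler features reduced to at least 20 principal components, Euclidean distance versus same-plate DMSO vehicle wells (0.1% v/v), median over six images per well.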
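Wherever surviving fraction (nuclei count normalised to DMSO) is given: nuclei counted by high-content imaging of Hoechst-stained cells in laminin-coated 384-well plates, relative to 0.1% DMSO vehicle wells, with staurosporine as cell-death control.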

CCOC(=O)C1=C(C)NC(C)=C(C(=O)OCC)C1c1c(F)c(F)c(F)c(F)c1F [Nemadipine-A]
Conditions	phenotypic distance	surviving fraction
[1], 4.1 nM	0.932	–
[1], 12.3 nM	0.387	–
[1], 37 nM	0.906	–
[1], 111.1 nM	0.74	–
[1], 333.3 nM	1.01	–
[1], 1000 nM	0.415	–
[1], 3000 nM	0.913	–
[2], 4.1 nM	0.43	–
[2], 12.3 nM	0.613	–
[2], 37 nM	0.807	–
[2], 111.1 nM	0.686	–
[2], 333.3 nM	0.703	–
[2], 1000 nM	0.642	–
[2], 3000 nM	1.14	–
[3], 4.1 nM	0.523	–
[3], 12.3 nM	0.695	–
[3], 37 nM	0.79	–
[3], 111.1 nM	0.477	–
[3], 333.3 nM	1.46	–
[3], 1000 nM	0.54	–
[3], 3000 nM	1.46	–
[4], 4.1 nM	0.957	–
[4], 12.3 nM	0.892	–
[4], 37 nM	0.571	–
[4], 111.1 nM	0.762	–
[4], 333.3 nM	0.542	–
[4], 1000 nM	0.692	–
[4], 3000 nM	0.903	–
[5], 4.1 nM	0.903	–
[5], 12.3 nM	0.665	–
[5], 37 nM	0.548	–
[5], 111.1 nM	0.745	–
[5], 333.3 nM	0.572	–
[5], 1000 nM	0.681	–
[5], 3000 nM	1.4	–
[6], 4.1 nM	0.666	–
[6], 12.3 nM	0.857	–
[6], 37 nM	0.641	–
[6], 111.1 nM	0.619	–
[6], 333.3 nM	0.843	–
[6], 1000 nM	0.698	–
[6], 3000 nM	0.734	–
[7], 4.1 nM	0.624	–
[7], 12.3 nM	0.608	–
[7], 37 nM	0.488	–
[7], 111.1 nM	0.574	–
[7], 333.3 nM	0.712	–
[7], 1000 nM	0.892	–
[7], 3000 nM	1.01	–
[8], 4.1 nM	–	1.15
[8], 12.3 nM	–	1.05
[8], 37 nM	–	1.01
[8], 111.1 nM	–	1.26
[8], 333.3 nM	–	1.3
[8], 1000 nM	–	1.15
[8], 3000 nM	–	1.13
[9], 4.1 nM	–	0.9
[9], 12.3 nM	–	1.03
[9], 37 nM	–	0.81
[9], 111.1 nM	–	0.996
[9], 333.3 nM	–	0.945
[9], 1000 nM	–	0.934
[9], 3000 nM	–	0.704
[10], 4.1 nM	–	0.945
[10], 12.3 nM	–	1.07
[10], 37 nM	–	1.04
[10], 111.1 nM	–	0.954
[10], 333.3 nM	–	1.03
[10], 1000 nM	–	0.984
[10], 3000 nM	–	0.77
[11], 4.1 nM	–	0.797
[11], 12.3 nM	–	0.944
[11], 37 nM	–	0.915
[11], 111.1 nM	–	0.841
[11], 333.3 nM	–	0.948
[11], 1000 nM	–	1.09
[11], 3000 nM	–	0.764
[12], 4.1 nM	–	0.897
[12], 12.3 nM	–	0.936
[12], 37 nM	–	0.991
[12], 111.1 nM	–	0.971
[12], 333.3 nM	–	0.924
[12], 1000 nM	–	0.931
[12], 3000 nM	–	0.838
[13], 4.1 nM	–	1.01
[13], 12.3 nM	–	0.767
[13], 37 nM	–	1.14
[13], 111.1 nM	–	1.16
[13], 333.3 nM	–	1.13
[13], 1000 nM	–	0.926
[13], 3000 nM	–	0.909
[14], 4.1 nM	–	1.03
[14], 12.3 nM	–	0.928
[14], 37 nM	–	1.17
[14], 111.1 nM	–	1.02
[14], 333.3 nM	–	0.866
[14], 1000 nM	–	1.1
[14], 3000 nM	–	0.804

O=C(Nc1ccc([N+](=O)[O-])cc1Cl)c1cc(Cl)ccc1O [Niclosamide]
Conditions	phenotypic distance	surviving fraction
[1], 4.1 nM	3.09	–
[1], 12.3 nM	4.78	–
[1], 37 nM	5.57	–
[1], 111.1 nM	10.1	–
[1], 333.3 nM	8.82	–
[1], 1000 nM	9.48	–
[1], 3000 nM	7.83	–
[2], 4.1 nM	1.99	–
[2], 12.3 nM	2.43	–
[2], 37 nM	6.04	–
[2], 111.1 nM	8.95	–
[2], 333.3 nM	7.22	–
[2], 1000 nM	8.51	–
[2], 3000 nM	7.9	–
[3], 4.1 nM	4.23	–
[3], 12.3 nM	7.26	–
[3], 37 nM	6.17	–
[3], 111.1 nM	4.83	–
[3], 333.3 nM	6.2	–
[3], 1000 nM	6.94	–
[3], 3000 nM	6.28	–
[4], 4.1 nM	4.25	–
[4], 12.3 nM	4.77	–
[4], 37 nM	6.86	–
[4], 111.1 nM	9.47	–
[4], 333.3 nM	8.21	–
[4], 1000 nM	8.6	–
[4], 3000 nM	8.06	–
[5], 4.1 nM	4.72	–
[5], 12.3 nM	6.44	–
[5], 37 nM	6.49	–
[5], 111.1 nM	11.8	–
[5], 333.3 nM	11.9	–
[5], 1000 nM	12.4	–
[5], 3000 nM	14	–
[6], 4.1 nM	1.82	–
[6], 12.3 nM	2.56	–
[6], 37 nM	5.44	–
[6], 111.1 nM	8.06	–
[6], 333.3 nM	7.5	–
[6], 1000 nM	7.96	–
[6], 3000 nM	7.89	–
[7], 4.1 nM	2.28	–
[7], 12.3 nM	3.48	–
[7], 37 nM	7.75	–
[7], 111.1 nM	7.91	–
[7], 333.3 nM	9.29	–
[7], 1000 nM	9.03	–
[7], 3000 nM	10.3	–
[8], 4.1 nM	–	0.927
[8], 12.3 nM	–	0.495
[8], 37 nM	–	0.132
[8], 111.1 nM	–	0.072
[8], 333.3 nM	–	0.0854
[8], 1000 nM	–	0.0502
[8], 3000 nM	–	0.0703
[9], 4.1 nM	–	0.616
[9], 12.3 nM	–	0.446
[9], 37 nM	–	0.147
[9], 111.1 nM	–	0.0916
[9], 333.3 nM	–	0.0952
[9], 1000 nM	–	0.0557
[9], 3000 nM	–	0.0898
[10], 4.1 nM	–	0.572
[10], 12.3 nM	–	0.303
[10], 37 nM	–	0.2
[10], 111.1 nM	–	0.176
[10], 333.3 nM	–	0.166
[10], 1000 nM	–	0.136
[10], 3000 nM	–	0.149
[11], 4.1 nM	–	0.397
[11], 12.3 nM	–	0.192
[11], 37 nM	–	0.156
[11], 111.1 nM	–	0.163
[11], 333.3 nM	–	0.148
[11], 1000 nM	–	0.132
[11], 3000 nM	–	0.117
[12], 4.1 nM	–	0.602
[12], 12.3 nM	–	0.363
[12], 37 nM	–	0.0551
[12], 111.1 nM	–	0.0103
[12], 333.3 nM	–	0.0028
[12], 1000 nM	–	0.00933
[12], 3000 nM	–	0.00467
[13], 4.1 nM	–	0.708
[13], 12.3 nM	–	0.542
[13], 37 nM	–	0.562
[13], 111.1 nM	–	0.417
[13], 333.3 nM	–	0.406
[13], 1000 nM	–	0.452
[13], 3000 nM	–	0.331
[14], 4.1 nM	–	0.772
[14], 12.3 nM	–	0.654
[14], 37 nM	–	0.297
[14], 111.1 nM	–	0.244
[14], 333.3 nM	–	0.227
[14], 1000 nM	–	0.262
[14], 3000 nM	–	0.28

NC(=O)c1cccc2cn(-c3ccc([C@@H]4CCCNC4)cc3)nc12 [Niraparib]
Conditions	phenotypic distance	surviving fraction
[1], 4.1 nM	0.907	–
[1], 12.3 nM	1.29	–
[1], 37 nM	1.19	–
[1], 111.1 nM	0.995	–
[1], 333.3 nM	0.875	–
[1], 1000 nM	0.834	–
[1], 3000 nM	2.29	–
[2], 4.1 nM	0.932	–
[2], 12.3 nM	0.689	–
[2], 37 nM	1.02	–
[2], 111.1 nM	0.861	–
[2], 333.3 nM	0.791	–
[2], 1000 nM	1.23	–
[2], 3000 nM	2.78	–
[3], 4.1 nM	0.553	–
[3], 12.3 nM	0.936	–
[3], 37 nM	0.684	–
[3], 111.1 nM	0.604	–
[3], 333.3 nM	0.582	–
[3], 1000 nM	0.667	–
[3], 3000 nM	1.51	–
[4], 4.1 nM	6.4	–
[4], 12.3 nM	0.843	–
[4], 37 nM	0.647	–
[4], 111.1 nM	1.65	–
[4], 333.3 nM	1.62	–
[4], 1000 nM	0.782	–
[4], 3000 nM	1.33	–
[5], 4.1 nM	1	–
[5], 12.3 nM	1.03	–
[5], 37 nM	0.998	–
[5], 111.1 nM	0.66	–
[5], 333.3 nM	0.751	–
[5], 1000 nM	3.25	–
[5], 3000 nM	0.988	–
[6], 4.1 nM	3.06	–
[6], 12.3 nM	0.78	–
[6], 37 nM	0.587	–
[6], 111.1 nM	0.691	–
[6], 333.3 nM	0.654	–
[6], 1000 nM	0.893	–
[6], 3000 nM	1.77	–
[7], 4.1 nM	1.72	–
[7], 12.3 nM	0.905	–
[7], 37 nM	1.21	–
[7], 111.1 nM	0.978	–
[7], 333.3 nM	0.746	–
[7], 1000 nM	1.12	–
[7], 3000 nM	2.12	–
[8], 4.1 nM	–	1.04
[8], 12.3 nM	–	0.782
[8], 37 nM	–	1
[8], 111.1 nM	–	0.896
[8], 333.3 nM	–	0.939
[8], 1000 nM	–	0.886
[8], 3000 nM	–	0.64
[9], 4.1 nM	–	0.905
[9], 12.3 nM	–	0.975
[9], 37 nM	–	0.875
[9], 111.1 nM	–	0.868
[9], 333.3 nM	–	0.922
[9], 1000 nM	–	0.84
[9], 3000 nM	–	0.603
[10], 4.1 nM	–	0.996
[10], 12.3 nM	–	0.917
[10], 37 nM	–	0.93
[10], 111.1 nM	–	0.833
[10], 333.3 nM	–	0.951
[10], 1000 nM	–	0.921
[10], 3000 nM	–	0.826
[11], 4.1 nM	–	0.923
[11], 12.3 nM	–	0.914
[11], 37 nM	–	0.942
[11], 111.1 nM	–	0.857
[11], 333.3 nM	–	0.967
[11], 1000 nM	–	0.966
[11], 3000 nM	–	0.811
[12], 4.1 nM	–	0.89
[12], 12.3 nM	–	0.869
[12], 37 nM	–	0.882
[12], 111.1 nM	–	0.923
[12], 333.3 nM	–	0.916
[12], 1000 nM	–	0.927
[12], 3000 nM	–	0.942
[13], 4.1 nM	–	0.963
[13], 12.3 nM	–	0.904
[13], 37 nM	–	0.902
[13], 111.1 nM	–	0.971
[13], 333.3 nM	–	0.861
[13], 1000 nM	–	0.924
[13], 3000 nM	–	0.737
[14], 4.1 nM	–	0.84
[14], 12.3 nM	–	0.901
[14], 37 nM	–	0.853
[14], 111.1 nM	–	0.918
[14], 333.3 nM	–	0.931
[14], 1000 nM	–	0.916
[14], 3000 nM	–	0.743
